Reference: publication PMC11434354, “Metabolic and Pharmacokinetic Profiling Studies of N, N-Dimethylaniline-Heliamine in Rats by UHPLC-Q-Orbitrap MS/MS” (Molecules, 2024)

Test: Metabolite identification of DH in rat plasma, urine, feces and rat liver microsomes by UHPLC-Q-Orbitrap MS/MS
Type: in vivo
Set-up: key: F*: feces; U*: urine; P*: plasma; LM*: Liver microsome
Settings: rat plasma
Protocol: For the analysis of DH metabolites, the same UHPLC-MS/MS system was used for the plasma analysis, and the ACQUIT UHPLC BEH C18 column was also utilized. Mobile phase A consisted of 0.1% formic acid in water (v/v), while mobile phase B comprised acetonitrile. The flow rate was maintained at 0.2 mL/min, with a 10 µL injection volume. The column temperature was kept constant at 35 °C, and the RS autosampler temperature was maintained at 10 °C. The gradient elution was as follows: 0–3 min(5%B), 3–11 min (7%B), 11–18 min (7%B), and 18–45 min (30%B). A full MS/dd MS^2 mode in positive heated electrospray ionization (HESI) with 140,000 (for MS) and 17,500 (for MS/MS) resolutions was used for the Q–Exactive Plus Orbitrap MS. The compounds identified in full MS/dd MS^2 mode will be scanned using PRM scanning. The following MS parameters were employed: AGC target, 1 × 10^6; Maximum IT, 100 ms; Spray voltage, 3.2 kV; Capillary temp, 320 °C; S-lens RF level, 55; HCD Energy 20, 40, and 60.
Rat liver microsomes were used for in vitro experiments to study DH metabolism in rats more quickly and easily. After that, the cofactors of phases I and II were added to create the phase I and phase II metabolic systems. The composition of the reagent kit and the procedure can be found in our previous work.
For the plasma study, 100 µL of plasma was obtained from rats at 0.5, 1, 2, and 4 h after medicine administration. Then, 300 µL of acetonitrile was added to the above plasma, vortexed for 1 min, and centrifuged for 7 min. The supernatant was collected, and the remaining liquid was dried using nitrogen gas at 40 °C. The blow-dried samples were re-dissolved in 100 µL methanol, sonicated for 1 min, and centrifuged for 7 min.
Urine was collected during the period spanning from 0 to 48 h following administration, with each period’s combined urine comprising 10 mL and 30 mL of acetonitrile added thereto. After a 10 min interval of sonication, the urine samples were transferred into 1.5 mL centrifuge tubes, vortexed for 1 min, and then centrifuged at a speed of 14,000 rpm for 10 min. Successively, the supernatant was merged and subjected to drying by nitrogen gas at 40 °C. The blow-dried samples were re-dissolved in 100 µL of methanol, sonicated for 1 min, and centrifuged for 7 min.
For the fecal study, feces were collected within 0–48 h following administration, dried to powder at room temperature in a shaded area, and combined to yield 8 mL per period, to which 40 mL of acetonitrile was added. Following 30 min of sonication, the samples were transferred to 1.5 mL centrifuge tubes and centrifuged at 14,000 rpm for 10 min. The supernatant was collected and dried with nitrogen at 40 °C before analysis via UHPLC-MS/MS. Before analysis, the blow-dried samples were re-dissolved in 100 µL of methanol, sonicated for 1 min, and centrifuged for 7 min.
Compound Discovery 3.3 was used for data processing. The MS spectrometric features mainly include retention time, exact mass, peak intensity, and fragment ions. The data processing mainly included selecting spectra, aligning retention times, creating pattern traces, creating fish traces, generating expected compounds, finding expected compounds, grouping expected compounds, fish scoring, and marking background compounds. The mass tolerance is less than 5 ppm.

Rat and LM* (matrices in which DH or the metabolite was detected) | Compound
U*, LM* | CN(C)c1ccc(C2NCCc3cc(O)c(O)cc32)cc1 (stereo not shown) [M2–A]
P*, U*, LM* | COc1cc2c(cc1OC)C(c1ccc(N)cc1)NCC2 (stereo not shown) [M2–B]
P*, U*, LM* | CNc1ccc(C2NCCc3cc(OC)c(OC)cc32)cc1 (stereo not shown) [M4–C]
F* | CN(C)c1ccc(-c2nccc3cc(O)c(O)cc23)cc1 [M6–A]
